Source: the NIST ThermoML archive (doi:10.1016/j.tca.2019.178334)

Assay: excess molar enthalpy (molar enthalpy of mixing); xn = mol fraction of the nth substance listed
Conditions: 933 K, 101 kPa, Liquid, Calvet calorimetry

[Cl-].[Li+] [lithium chloride] + [Cl-].[K+]
Conditions	excess molar enthalpy [kcal/mol]
x2 = 0	0
x2 = 0.026	-0.117
x2 = 0.061	-0.239
x2 = 0.073	-0.308
x2 = 0.105	-0.372
x2 = 0.128	-0.488
x2 = 0.162	-0.542
x2 = 0.188	-0.638
x2 = 0.214	-0.705
x2 = 0.24	-0.781
x2 = 0.275	-0.861
x2 = 0.298	-0.884
x2 = 0.33	-0.965
x2 = 0.371	-1.02
x2 = 0.418	-1.06
x2 = 0.427	-1.04
